Experimental data reported in patent US12215118B2, “Quinone methide analog signal amplification” (Ventana Medical Systems, Inc., priority 2014, dated 2025).

Tests used:
[1] = test system: BCL6 on FFPE tonsil tissue; assay: AP-based CARD IHC with biotinylated QM precursor followed by DAB detection
Protocol: Detection 1—HRP DAB. After incubating with the AP conjugate the slides were washed with Special Stains wash (VMSI #860-015). QMP reagents were dissolved in 100 mM CHES (3-cyclo-hexylamino-ethylsulfonic acid), pH 10.0, 0.05% Brij-35. QMP turnover was achieved by adding 100 μL of AP Enhancer (VMSI #253-2182) followed by 100 μL of hapten labeled QMP and incubating at 37° C. for 16 minutes. Compound 29 is an exemplary hapten-QMP that could be used according to this method. The deposited hapten was subsequently bound by a mouse-anti-hapten-HRP conjugate (or streptavidin-HRP) (37° C.; 8 minutes), and visualized via a brown precipitate produced by HRP upon the addition of hydrogen peroxide and DAB (37° C.; 8 minutes). The DAB was toned by the addition of copper sulfate (37° C.; 4 minutes). The stained tissue sections were counterstained with modified Mayer's hematoxylin (Hematoxylin II, VMSI #790-2208) (37° C.; 4 minutes) and then incubated with Bluing Reagent (VMSI #760-2037) (37° C.; 4 minutes). The slides were then dehydrated through a graded ethanol series, cleared with xylene, and manually cover-slipped.
Both compounds utilize fluoride as the leaving group, but the reactivity of the QM derived from difluoro compound 58 should be considerably lower than monofluoro 7 due to the electronic stabilization offered by the geminal fluorine atom. […] Therefore, the difluoro QM precursor compound 58 was evaluated first for IHC staining performance on FFPE tissue using the nuclear marker BCL6 on FFPE tonsil tissue as a model system. The biotin-labeled difluoro QM precursor successfully bound to the sample as evidenced by subsequent biotin visualization using diaminobenzidine (DAB) detection. FIG. 18 provides microphotographs illustrating the detection level at varying concentrations of the difluoro QM precursor in a Tris buffer at pH=8.5 (panel A—DAB control, panel B—1 μM, panel C—10 μM and panel D—20 μM). In addition, significant amplification of signal was observed compared to the DAB control sample when on-slide concentrations of difluoro QM precursor compound 58 greater than […] were utilized.
To test the effect of pH on signal diffusion, difluoro QM precursor compound 58 was deposited as before at various pH levels within the working range for AP (7-12 with two shoulders of maximal activity at pH=8.5 and 11). The nuclear marker BCL6 on FFPE tonsil tissue was again chosen as the model. Positive staining was observed across the entire pH range, although a balance between overall signal and diffusion was seen. FIG. 19, panels A-H provide microphotographs of the detection levels of 20 µM QM precursor in Tris buffer with varying pH: panel A—DAB control; panel B pH=7.0; panel C pH=8.0; panel D pH=8.5; panel E pH=9.0; panel F pH=10.0; panel G pH=11.0; panel H pH=12.0. The diffusion appears to decrease with increasing pH. […] The level of amplification increased only as the pH rose to 8.5 and then decreased gradually over the rest of the range. This effect may be due to a combination of enzyme activity and the population of QM quenchers in the reaction media. At pH levels well below the optimal AP reaction conditions (7.0), the activity of AP was depressed, resulting in low signal. As the pH increased (8.0-8.5) but remained near the pKa of Tris (8.1), the activity of AP increased at a faster rate than the population of quenchers in the reaction media, leading to a significant increase in signal. Raising the pH further (9-10) increased the quencher population while decreasing AP activity, resulting in a decrease of signal. Although AP had maximal activity at pH 11 in Tris, a slight decrease in staining intensity was observed, most likely due to the excessively high population of quenchers that could not be overcome by the increased AP activity (raising the pH from 8.5 to 11 increases [Tris base] about 50%, with AP activity increasing by only about 20%). […]

[2] = test system: Bcl2 on FFPE tonsil tissue; assay: HRP DAB amplified by QMP-biotin with different linkers; conditions: 100 nM, CHES pH 10.0, different linkers
Protocol: The tissue was deparaffinized and retrieved as described in the general procedures. Mouse-anti-Bcl-2 antibody incubation (37° C., 16 minutes) and washing were followed by secondary antibody incubation with a goat polyclonal anti-mouse antibody conjugated to AP (37° C.; 12 minutes). After incubating with the AP conjugate the slides were washed with Special Stains wash. Monofluoro QMP-biotin (with aniline amide (FIG. 23(A)), benzoic amide (FIG. 23(B)) or tyramide amide linker (FIG. 23(C)) (100 nM) was dissolved in 100 mM CHES, pH 10.0, 0.05% Brij-35 to a final concentration of 100 nM. QMP turnover was achieved by adding 100 μL of AP Enhancer followed by 100 μL of biotin labeled QMP and incubating at 37° C. for 16 minutes. The deposited biotin was subsequently bound by a streptavidin-HRP conjugate (37° C.; 8 minutes), and visualized via a brown precipitate produced by HRP upon the addition of hydrogen peroxide and DAB (37° C.; 8 minutes). The DAB was toned by the addition of copper sulfate (37° C.; 4 minutes). The stained tissue sections were counterstained with modified Mayer's hematoxylin (37° C.; 4 minutes) and then incubated with Bluing Reagent (37° C.; 4 minutes). They were then dehydrated through a graded ethanol series, cleared with xylene, and manually cover-slipped.

[3] = test system: alkaline phosphatase (AP); assay: Trapping of the QM intermediate with Tris in solution, HPLC-MS; type: biochemical; conditions: pH 10 Tris buffer
Protocol: To probe the mechanism of staining and quenching, an attempt was made to trap the QM intermediate formed by monofluoro QM precursor 7 in solution-phase under similar conditions to those utilized in the staining experiments (FIG. 26). QM precursor 7 was dissolved in pH 10 Tris buffer followed by addition of a catalytic amount of AP. The reaction progress was monitored by HPLC-MS (FIG. 27, panels A-C). Within 10 minutes, complete conversion to the Tris adduct 7-tris was observed (panel C).

SMILES | diffusion and off-target staining ([1]; 250 nM, Tris buffer, pH of 10) | concentration required to give the desired level of amplification ([1]; pH 8.5 in Tris buffer) | overall diffusion compared to difluoro QM precursor 58 ([1]; pH 8.5 in Tris buffer) | signal resolution [2] | time to complete conversion to the Tris adduct ([3]; catalytic amount of AP) | reaction in the absence of AP ([3]; no AP)
O=C(CCCCC1SCC2NC(=O)NC21)NCCCCCC(=O)Nc1ccc(OP(=O)(O)O)c(CF)c1 (stereo not shown) [Compound 7, 2-(fluoromethyl)-4-(6-(5-(2-oxohexahydro-1H-thieno[3,4-d]imidazol-4-yl)pentanamido)hexanamido)phenyl dihydrogen phosphate] | nearly eliminated | 250 nM | greatly reduced | well resolved signals | ≤ 10 min | no reaction took place
O=C(CCCCC1SCC2NC(=O)NC21)NCCCCCNC(=O)c1ccc(OP(=O)(O)O)c(CF)c1 (stereo not shown) [Compound 21, 2-(fluoromethyl)-4-((5-(5-(2-oxohexahydro-1H-thieno[3,4-d]imidazol-4-yl)pentanamido)pentyl)carbamoyl)phenyl dihydrogen phosphate] |  |  |  | more diffuse, less resolved signal |  | 
